Counter-ions that a name gives are not always drawn.
Experiments:
[1] = system: HCT116; settings: 72 h
Method in brief: (§1)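 For IC50 and maximal efficacy, four-parameter Hill fits were used. Input values were CellTiter-Glo luminescence from HCT116 cells seeded at 250 per well in 1536-well plates, normalized to vehicle (0%) and positive control (-100%). Pattern correction followed normalization.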

[2] = system: HCT116; assay: efficacy (maximum % inhibition of viability vs DMSO); higher = more cytotoxic; settings: 72 h
Method in brief: as §1

Structure (SMILES)	IC50 cell viability ([1]; ICRF193 0 nM) [µM]	IC50 cell viability ([1]; ICRF193 200 nM) [µM]	efficacy ([2]; ICRF193 200 nM) [%]	efficacy ([2]; ICRF193 0 nM) [%]
Cc1cc(C2=NOC(c3cc(Cl)cc(Cl)c3)(C(F)(F)F)C2)ccc1C(=O)NCC(=O)NCC(F)(F)F (stereo unspecified) [Fluralaner]	18.3	29.1	104	96.5
C[C@H](Oc1cc(-c2cnn(C3CCNCC3)c2)cnc1N)c1c(Cl)ccc(F)c1Cl [(S)-Crizotinib]	20.6	18.3	91.2	89.7
CCCCCCCCCCCCCCCC[N+](C)(C)C [Hexadecyltrimethylammonium bromide]	5.8	7.3	91.6	103
N=c1ccn2c(n1)O[C@H]1[C@H](O)[C@@H](CO)O[C@H]12 [ANCITABINE HYDROCHLORIDE]	0.206	0.146	56.7	58.5
CCc1nc(N)nc(N)c1-c1ccc(Cl)cc1 [Pyrimethamine]	11.6	9.2	93.4	106
Oc1cccc(O)c1 [Resorcinol]	> 45.8	29.1	46.8	
Nc1nc(N)c2nc(-c3ccccc3)c(N)nc2n1 [Triamterene]	29.1	29.1	92.7	95.4
Nc1nc(Cl)nc2c1ncn2[C@H]1C[C@H](O)[C@@H](CO)O1 [Cladribine]	1.3	0.651	66.1	56.1
CN(C)C/C=C/C(=O)Nc1cc2c(Nc3ccc(F)c(Cl)c3)ncnc2cc1O[C@H]1CCOC1 [Afatinib (BIBW2992)]	29.1	18.3	130	110
CO[C@@H]1[C@@H](O[C@@H]2O[C@H](C)[C@@H](O[C@H]3C[C@@](C)(O)[C@@H](OC(=O)CC(C)C)[C@H](C)O3)[C@H](N(C)C)[C@H]2O)[C@@H](CC=O)C[C@@H](C)C(=O)/C=C/[C@@H]2O[C@H]2C[C@@H](C)OC(=O)C[C@H]1OC(C)=O [Carbomycin A]	25.9	20.6	91.2	93
C#Cc1cccc(Nc2ncnc3cc(OCCOC)c(OCCOC)cc23)c1 [Erlotinib]	> 45.8	14.6	50.4	

More lines, main results first:

IC50 cell viability ([1]; ICRF193 0 nM) [µM]	IC50 cell viability ([1]; ICRF193 200 nM) [µM]	Structure (SMILES)	efficacy ([2]; ICRF193 200 nM) [%]	efficacy ([2]; ICRF193 0 nM) [%]
> 45.8	18.3	CN1CCC(CN2c3ccccc3Sc3ccccc32)C1 (stereo unspecified) [Methdilazine hydrochloride]	53.5	
2.06	> 45.8	CC(=O)Oc1ccc(C(c2ccc(OC(C)=O)cc2)c2ccccn2)cc1 [Bisacodyl]		48.1
0.73	1.46	COc1cccc2c1C(=O)c1c(O)c3c(c(O)c1C2=O)C[C@@](O)(C(=O)CO)C[C@@H]3O[C@H]1C[C@H](N)[C@@H](O)[C@H](C)O1 [Epirubicin hydrochloride]	73.8	91.9
5.17	6.51	COc1cccc2c1C(=O)c1c(O)c3c(c(O)c1C2=O)C[C@@](O)(C(=O)CO)C[C@@H]3O[C@H]1C[C@H](N)[C@H](O[C@@H]2CCCCO2)[C@H](C)O1 [Pirarubicin]	104	127
32.6	29.1	CN(C/C=C/c1ccccc1)Cc1cccc2ccccc12 [Naftifine hydrochloride]	54	49.9
20.6	18.3	Fc1ccc(C(c2ccc(F)cc2)N2CCN(C/C=C/c3ccccc3)CC2)cc1 [Flunarizine]	80	109
18.3	16.4	Clc1ccccc1C(c1ccccc1)(c1ccccc1)n1ccnc1 [Clotrimazole]	94.7	102
> 45.8	20.6	CC(=O)c1ccc2c(c1)N(CCCN1CCC(CCO)CC1)c1ccccc1S2 [Piperacetazine]	48.7	
> 45.8	29.1	CN1CCCC(n2nc(Cc3ccc(Cl)cc3)c3ccccc3c2=O)CC1 (stereo unspecified) [Azelastine hydrochloride]	65.4	
10.3	13	Cc1c(C(=O)Nc2ccc(N3C[C@@H](C)O[C@@H](C)C3)nc2)cccc1-c1ccc(OC(F)(F)F)cc1 [Sonidegib]	60.5	42.7
> 45.8	23.1	C=C1CC[C@H](O)C/C1=C/C=C1\CCC[C@]2(C)[C@@H]([C@H](C)CCCC(C)(C)O)CC[C@@H]12 [Calcifediol (monohydrate)]	42.8	
23.1	20.6	CCN1\C(=C/C=C/C=C/c2sc3ccccc3[n+]2CC)Sc2ccccc21 [Dithiazanine chloride]	99	96.7
29.1	20.6	CC(C)(C)NC(=O)[C@@H]1C[C@@H]2CCCC[C@@H]2CN1C[C@@H](O)[C@H](Cc1ccccc1)NC(=O)[C@H](CC(N)=O)NC(=O)c1ccc2ccccc2n1 [Saquinavir]	108	84.1
3.66	2.31	CCCCC(=O)OCC(=O)[C@]1(O)Cc2c(O)c3c(c(O)c2[C@@H](O[C@H]2C[C@H](NC(=O)C(F)(F)F)[C@H](O)[C@H](C)O2)C1)C(=O)c1c(OC)cccc1C3=O [Valrubicin]	97.8	90.1
> 45.8	16.4	CCCCCC(=O)O[C@]1(C(C)=O)CC[C@H]2[C@@H]3CCC4=CC(=O)CC[C@]4(C)[C@H]3CC[C@@]21C [Hydroxyprogesterone caproate]	56.4	

From the supplement of paper PMC12137928
